Assay results as given in patent US20100222349A1, “QUINOLINE DERIVATIVES USED TO TREAT INFLAMMATORY AND ALLERGIC DISEASES” (Glaxo Group Limited, priority 2007, published 2010).

Assays:
histamine H3 receptor = biological target: T1, histamine H3 receptor (Homo sapiens, UniProt Q9Y5N1); assay: Histamine H3 functional antagonist assay (GTPγS, membranes); assay type: biochemical; conditions: CHO K1 membranes, [35S]-GTPγS, histamine at EC80; read-out: average pKi (pKb) at H3 (converted)
T1 construct: expressed in transfected cells; host or cells: CHO K1 cells with pSwitch/pGeneH3 (GeneSwitch, mifepristone-induced), clone 3H3; membrane preparation
Procedure: The histamine H3 cDNA is isolated from its holding vector, pcDNA3.1 TOPO (InVitrogen), by restriction digestion of plasmid DNA with the enzymes BamH1 and Not-1 and is ligated into the inducible expression vector pGene (InVitrogen) digested with the same enzymes. The GeneSwitchTM system (a system where in transgene expression is switched off in the absence of an inducer and switched on in the presence of an inducer) is performed as described in U.S. Pat. Nos. 5,364,791; 5,874,534; and 5,935,934. Ligated DNA is transformed into competent DH5α E. coli host bacterial cells and is plated onto Luria Broth (LB) agar containing ZeocinTM (an antibiotic which allows the selection of cells expressing the sh ble gene which is present on pGene and pSwitch) at 50 μgml^-1. Colonies containing the re-ligated plasmid are identified by restriction analysis. DNA for transfection into mammalian cells is prepared from 250 ml cultures of the host bacterium containing the […]3 plasmid and is isolated using a DNA preparation kit (Qiagen Midi-Prep) as per manufacturers guidelines (Qiagen). CHO K1 cells previously transfected with the pSwitch regulatory plasmid (InVitrogen) are seeded at 2×10^6 cells per T75 flask in Complete Medium, containing Hams F12 (GIBCOBRL, Life Technologies) medium supplemented with 10% v/v dialysed foetal bovine serum, L-glutamine, and hygromycin (100 μgml^-1), 24 h prior to use. Plasmid DNA is transfected into the cells using Lipofectamine plus according to the manufacturer's guidelines (InVitrogen). 48 h post transfection, cells are placed into complete medium supplemented with 500 μgml^-1 ZeocinTM. 10-14 days post selection, 10 nM Mifepristone (InVitrogen) is added to the culture medium to induce the expression of the receptor. 18 h post induction, cells are detached from the flask using ethylenediamine tetra-acetic acid (EDTA; 1:5000; InVitrogen), following several washes with PBS, pH 7.4 and are resuspended in Sorting Medium containing Minimum Essential Medium (MEM), without phenol red, and are supplemented with Earles salts and 3% Foetal Clone II (Hyclone). Approximately 1×10^7 cells are examined for receptor expression by staining with a rabbit polyclonal antibody, 4a, raised against the N-terminal domain of the histamine H3 receptor, are incubated on ice for 60 min, followed by two washes in sorting medium. Receptor bound antibody is detected by incubation of the cells for 60 min on ice with a goat anti rabbit antibody, conjugated with Alexa 488 fluorescence marker (Molecular Probes). Following two further washes with Sorting Medium, cells are filtered through a 50 μm FilconTM (BD Biosciences) and then are analysed on a FACS Vantage SE Flow Cytometer fitted with an Automatic Cell Deposition Unit. Control cells are non-induced cells treated in an analogous manner. Positively stained cells are sorted as single cells into 96-well plates, containing Complete Medium containing 500 μgml^-1 ZeocinTM and are allowed to expand before reanalysis for receptor expression via antibody and ligand binding studies. One clone, 3H3, is selected for membrane preparation. All steps of the protocol are carried out at 4° C. and with pre-cooled reagents. The cell pellet is resuspended in 10 volumes of homogenisation buffer (50 mM N-2-hydroxyethylpiperazine-N'-2-ethanesulfonic acid (HEPES), 1 mM ethylenediamine tetra-acetic acid (EDTA), pH 7.4 with KOH, supplemented with 10^-6 M leupeptin (acetyl-leucyl-leucyl-arginal; Sigma L2884), 25 μgml^-1 bacitracin (Sigma B0125), 1 mM phenylmethylsulfonyl fluoride (PMSF) and 2×10^-6 M pepstain A (Sigma)). The cells are then homogenised by 2×15 sec bursts in a 1 L glass Waring blender, followed by centrifugation at 500 g for 20 min. The supernatant is then spun at 48,000 g for 30 min. The pellet is resuspended in homogenisation buffer (4× the volume of the original cell pellet) by vortexing for 5 sec, followed by homogenisation in a Dounce homogeniser (10-15 strokes). […]

human H1 receptor = biological target: T2, human H1 receptor (Homo sapiens, UniProt P35367); assay: Histamine H1 functional antagonist assay: determination of functional pKi values (FLIPR); assay type: cell-based; conditions: CHO cells expressing human H1 receptor, histamine at EC80, read-out: average pKi (pKb) at H1 (converted)
T2 construct: expressed in transfected cells
Procedure: The human H1 receptor is cloned using known procedures described in the literature [Biochem. Biophys. Res. Commun., 201(2):894 (1994)]. Chinese hamster ovary (CHO) cells stably expressing the human H1 receptor are generated according to known procedures described in the literature [Br. J. Pharmacol., 117(6):1071 (1996)]. The histamine H1 cell line is seeded into non-coated black-walled clear bottom 384-well tissue culture plates in alpha minimum essential medium (Gibco/Invitrogen, cat no. 22561-021), supplemented with 10′)/0 dialysed foetal calf serum (Gibco/Invitrogen cat no. 12480-021) and 2 mM L-glutamine (Gibco/Invitrogen cat no 25030-024) and is maintained overnight at 5% CO2, 37° C. Excess medium is removed from each well to leave 10 μl. 30 μl loading dye (250 μM Brilliant Black, 2 μM Fluo-4 diluted in Tyrodes buffer+probenecid (145 mM NaCl, 2.5 mM KCl, 10 mM HEPES, 10 mM D-glucose, 1.2 mM MgCl2, 1.5 mM CaCl2, 2.5 mM probenecid, pH adjusted to 7.40 with NaOH 1.0 M)) is added to each well and the plates are incubated for 60 min at 5% CO2, 37° C. 10 μl of test compound, diluted to the required concentration in Tyrodes buffer+probenecid (or 10 μl Tyrodes buffer+probenecid as a control) is added to each well and the plate is incubated for 30 min at 37° C., 5% CO2. The plates are then placed into a FLIPR™(Molecular Devices, UK) to monitor cell fluorescence (λex=488 nm, λEM=540 nm) in the manner described in Sullivan et al., (In: Lambert DG (ed.), Calcium Signaling Protocols, New Jersey: Humana Press, 1999, 125-136) before and after the addition of 10 μl histamine at a concentration that results in the final assay concentration of histamine being EC80. Functional antagonism is indicated by a suppression of histamine induced increase in fluorescence, as measured by the FLIPR™ system (Molecular Devices). By means of concentration effect curves, functional affinities are determined using standard pharmacological mathematical analysis.

T2 sequence (P35367 whole entry): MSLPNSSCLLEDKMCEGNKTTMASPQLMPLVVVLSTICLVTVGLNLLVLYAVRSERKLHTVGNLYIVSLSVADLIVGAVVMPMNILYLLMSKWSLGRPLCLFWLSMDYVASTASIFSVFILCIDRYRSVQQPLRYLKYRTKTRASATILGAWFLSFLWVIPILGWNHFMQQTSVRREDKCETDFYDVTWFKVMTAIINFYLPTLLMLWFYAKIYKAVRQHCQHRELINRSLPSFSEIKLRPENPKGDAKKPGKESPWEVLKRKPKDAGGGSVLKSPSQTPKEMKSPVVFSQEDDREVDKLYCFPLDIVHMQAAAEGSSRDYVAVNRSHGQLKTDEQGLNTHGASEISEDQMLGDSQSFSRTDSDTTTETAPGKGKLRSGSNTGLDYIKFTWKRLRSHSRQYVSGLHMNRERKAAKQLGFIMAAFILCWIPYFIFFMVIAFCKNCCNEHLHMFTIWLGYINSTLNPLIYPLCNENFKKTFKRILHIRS
T1 sequence (Q9Y5N1 whole entry, species assumed): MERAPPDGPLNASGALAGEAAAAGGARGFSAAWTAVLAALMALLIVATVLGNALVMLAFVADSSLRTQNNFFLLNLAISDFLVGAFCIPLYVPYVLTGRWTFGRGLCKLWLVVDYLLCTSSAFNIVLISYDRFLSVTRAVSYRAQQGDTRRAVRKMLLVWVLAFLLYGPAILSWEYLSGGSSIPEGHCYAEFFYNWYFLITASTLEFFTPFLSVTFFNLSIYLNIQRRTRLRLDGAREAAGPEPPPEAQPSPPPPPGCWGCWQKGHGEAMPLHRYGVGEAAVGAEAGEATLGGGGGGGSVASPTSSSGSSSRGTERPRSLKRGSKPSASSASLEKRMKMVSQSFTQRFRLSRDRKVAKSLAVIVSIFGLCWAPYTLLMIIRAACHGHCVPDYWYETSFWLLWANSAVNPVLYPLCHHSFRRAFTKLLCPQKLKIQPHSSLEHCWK

Structure (SMILES)	Ki (histamine H3 receptor) [nM]	Ki (human H1 receptor) [nM]
CCCCc1cc(OC2CCN(CCC3CCN(C(=O)CC)CC3)CC2)c2ncccc2c1 [Example 4, 6-Butyl-8-({1-[2-(1-propanoyl-4-piperidinyl)ethyl]-4-piperidinyl}oxy)quinoline]	> 316	< 100
CCCCc1cc(O[C@@H]2CCN(CCCC(=O)N3CCCCC3)C2)c2ncccc2c1 [Example 34, 6-butyl-8-({(3R)-1-[4-oxo-4-(1-piperidinyl)butyl]-3-pyrrolidinyl}oxy)quinoline]	> 316	< 10
CCCCc1cc(OC2CCN(CC(=O)NC(C)C)CC2)c2ncccc2c1 [Example 14, 2-{4-[(6-butyl-8-quinolinyl)oxy]-1-piperidinyl}-N-(1-methylethyl)acetamide]	> 3160	< 100
CCCCCCc1cc(OC2CCN(C[C@H]3CC[C@H](C(=O)Nc4ccc(C)cc4)CC3)CC2)c2ncccc2c1 [Example 48, trans-4-({4-[(6-hexyl-8-quinolinyl)oxy]-1-piperidinyl}methyl)-N-(4-methylphenyl) cyclohexane carboxamide]	> 316	< 100
CCCCc1cc(O[C@H]2CCN(CCCC(=O)N3CCCCC3)C2)c2ncccc2c1 [Example 39, 6-butyl-8-({(3S)-1-[4-oxo-4-(1-piperidinyl)butyl]-3-pyrrolidinyl}oxy)quinoline]	> 316	< 10
CCCCc1cc(OC2CCN(CCC3CCN(C(C)=O)CC3)CC2)c2ncccc2c1 [Example 3, 8-({1-[2-(1-Acetyl-4-piperidinyl)ethyl]-4-piperidinyl}oxy)-6-butylquinoline]	> 316	< 100
CCCCc1cc(O[C@@H]2CCN(CCC(=O)NC(C)(C)C)C2)c2ncccc2c1 [Example 36, 3-{(3R)-3-[(6-butyl-8-quinolinyl)oxy]-1-pyrrolidinyl}-N-(1,1-dimethylethyl) propanamide]	> 316	< 10
CCCCc1cc(OC2CCN(CCCCC(=O)NCCC)CC2)c2ncccc2c1 [Example 28, 5-{4-[(6-butyl-8-quinolinyl)oxy]-1-piperidinyl}-N-propylpentanamide]	> 3160	< 10
CCCCc1cc(OC2CCN(C[C@H]3CC[C@H](C(=O)NCCCOC)CC3)CC2)c2ncccc2c1 [Example 47, trans-4-({4-[(6-butyl-8-quinolinyl)oxy]-1-piperidinyl}methyl)-N-[3-(methyloxy)propyl]cyclohexane carboxamide]	> 316	< 10
CCCCc1cc(OC2CCN(CCCCC(=O)NC(C)C)CC2)c2ncccc2c1 [Example 32, 5-{4-[(6-butyl-8-quinolinyl)oxy]-1-piperidinyl}-N-(1-methylethyl) pentanamide]	–	< 10

Further lines, results first:

Ki (histamine H3 receptor) [nM]	Ki (human H1 receptor) [nM]	Structure (SMILES)
> 316	< 10	CCCCc1cc(OC2CCN(CCNC(=O)C(C)C)CC2)c2ncccc2c1 [Example 71, N-(2-{4-[(6-butyl-8-quinolinyl)oxy]-1-piperidinyl}ethyl)-2-methylpropanamide]
> 316	< 10	CCCCc1cc(OC2CCN(CCCCNC(=O)CC)CC2)c2ncccc2c1 [Example 64, N-(4-{4-[(6-Butyl-8-quinolinyl)oxy]-1-piperidinyl}butyl)propanamide]
> 316	< 100	CCCCCCc1cc(OC2CCN(C[C@H]3CC[C@H](C(=O)NCCC(C)C)CC3)CC2)c2ncccc2c1 [Example 50, trans-4-({4-[(6-hexyl-8-quinolinyl)oxy]-1-piperidinyl}methyl)-N-(3-methylbutyl) cyclohexane carboxamide]
> 316	< 100	CCCCc1cc(OC2CCN(CCCNC(=O)CCCOC)CC2)c2ncccc2c1 [Example 83, N-(3-{4-[(6-butyl-8-quinolinyl)oxy]-1-piperidinyl}propyl)-4-(methyloxy) butanamide]
> 316	< 100	CCCCCCc1cc(OC2CCN(C[C@H]3CC[C@H](C(=O)N4CCCC4)CC3)CC2)c2ncccc2c1 [Example 54, 6-hexyl-8-[(1-{[trans-4-(1-pyrrolidinylcarbonyl)cyclohexyl]methyl}-4-piperidinyl)oxy]quinoline]
> 316	< 10	CCCCc1cc(OC2CCN(CCCCCNC(=O)CC)CC2)c2ncccc2c1 [Example 77, N-(5-{4-[(6-butyl-8-quinolinyl)oxy]-1-piperidinyl}pentyl) propanamide]
> 316	< 100	CCCCc1cc(OC2CCN(C[C@H]3CC[C@H](C(=O)NCc4ccc(C)cc4)CC3)CC2)c2ncccc2c1 [Example 60, trans-4-({4-[(6-butyl-8-quinolinyl)oxy]-1-piperidinyl}methyl)-N-[(4-methylphenyl)methyl]cyclohexane carboxamide]
> 316	< 10	CCCCc1cc(OC2CCN(CCCNC(=O)C(C)(C)C)CC2)c2ncccc2c1 [Example 69, N-(3-{4-[(6-butyl-8-quinolinyl)oxy]-1-piperidinyl}propyl)-2,2-dimethyl propanamide]
> 316	< 10	CCCCCc1cc(OC2CCN(CCCNC(=O)C(C)(C)C)CC2)c2ncccc2c1 [Example 91, 2,2-Dimethyl-N-(3-{4-[(6-pentyl-8-quinolinyl)oxy]-1-piperidinyl}propyl) propanamide]
> 316	< 100	CCCCc1cc(OC2CCN(C[C@H]3CC[C@H](C(=O)N4CCOCC4)CC3)CC2)c2ncccc2c1 [Example 63, 6-butyl-8-[(1-{[trans-4-(4-morpholinylcarbonyl)cyclohexyl]methyl}-4-piperidinyl)oxy]quinoline]
> 316	< 10	CCCCc1cc(OC2CCN(CCNC(=O)CCOC)CC2)c2ncccc2c1 [Example 80, N-(2-{4-[(6-butyl-8-quinolinyl)oxy]-1-piperidinyl}ethyl)-3-(methyloxy) propanamide]
